Results on eight compounds are retold here after publication PMC10023787, “Trio-pharmacophore DNA-encoded chemical library for simultaneous selection of fragments and linkers” (Nature Communications, 2023).

For assay [1], the target named is T1, MMP-2 (Homo sapiens, UniProt P08253).
T1 construct: purchased Sino Biological 10082-HNAH
T1 sequence (P08253 110-660): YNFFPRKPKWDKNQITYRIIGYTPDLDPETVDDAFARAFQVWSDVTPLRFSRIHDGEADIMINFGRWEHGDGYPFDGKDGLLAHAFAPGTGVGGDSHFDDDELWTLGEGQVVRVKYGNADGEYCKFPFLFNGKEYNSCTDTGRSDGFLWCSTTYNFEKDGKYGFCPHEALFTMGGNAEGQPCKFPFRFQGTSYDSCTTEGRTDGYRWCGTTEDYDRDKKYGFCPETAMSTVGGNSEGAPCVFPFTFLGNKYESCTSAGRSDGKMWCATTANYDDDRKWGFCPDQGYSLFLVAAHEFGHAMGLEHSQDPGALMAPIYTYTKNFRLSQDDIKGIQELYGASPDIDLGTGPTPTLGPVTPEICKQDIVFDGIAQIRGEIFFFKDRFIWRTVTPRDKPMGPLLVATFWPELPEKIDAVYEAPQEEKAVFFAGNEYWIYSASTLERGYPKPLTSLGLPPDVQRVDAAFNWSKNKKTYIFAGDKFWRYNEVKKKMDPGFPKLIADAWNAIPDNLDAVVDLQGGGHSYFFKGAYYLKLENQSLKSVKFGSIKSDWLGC
Put plainly: MMP-2 inhibition assay (fluorogenic peptide substrate). Format: biochemical. The following applies: for remaining activity (%): MMP-2; for IC50: mean ± SE, n.d: not detected, Fig. 5d unit inferred, µM, read-out: IC50. On the procedure:
(§1) The inhibition by the small molecule compounds against MMP-2/MMP-9 was measured using an assay probing the enzyme proteolytic activity on the substrate DNP-Pro-Leu-Gly-Met-Trp-Ser-Arg (Enzo Life Sciences, USA). All assays were performed in the assay buffer containing 50 mM Tris, 100 mM NaCl. 5 mM CaCl2, and 0.1% Brij 35, pH 7.5. Human proMMP-2 and proMMP-9 were purchased from Sino biological (Germany). The proMMPs were activated by 1 mM APMA in the assay buffer at 37 °C for 2 h. After activation, MMP-2 was diluted to 6.5 nM of final assay concentration, and MMP-9 was diluted by the buffer to reach 10 nM of final assay concentration. In each well, 49 μl of enzyme solution was incubated with 1 μl of compounds of series of concentration (nM-mM in DMSO) at RT for 30 min. 2 μl of the FRET substrate was added right before the measurement at a final concentration of 25 μM. The rate of hydrolysis was monitored by quantifying the emission at 360 nm (ex: 280 nm). The emission was measured with intervals of the 30 s for 30 min with Synergy H1 Plate Reader (Agilent, USA). The measurements were done in triplicate. […] Then, curves were plotted as a function of the concentration of the inhibitor against the relative enzyme activity. Vmax was derived from the detected […] signal for each concentration and logistic fitting was performed to obtain IC50 values using Origin 2019b (OriginLab).

For assay [2], the target named is T2, MMP-9 (Homo sapiens, UniProt P14780).
T2 construct: purchased Sino Biological 10327-HNAH
The assay is described as follows: MMP-9 inhibition assay (fluorogenic peptide substrate). Format: biochemical. Set-up: remaining enzyme activity (% of control): scale not given here. To be noted: for remaining enzyme activity (% of control): MMP-9; for IC50: mean ± SE, n.d: not detected, Fig. 5e prints no unit, µM, read-out: IC50. On the procedure:
as §1

T2 sequence (P14780 107-707 limits assumed): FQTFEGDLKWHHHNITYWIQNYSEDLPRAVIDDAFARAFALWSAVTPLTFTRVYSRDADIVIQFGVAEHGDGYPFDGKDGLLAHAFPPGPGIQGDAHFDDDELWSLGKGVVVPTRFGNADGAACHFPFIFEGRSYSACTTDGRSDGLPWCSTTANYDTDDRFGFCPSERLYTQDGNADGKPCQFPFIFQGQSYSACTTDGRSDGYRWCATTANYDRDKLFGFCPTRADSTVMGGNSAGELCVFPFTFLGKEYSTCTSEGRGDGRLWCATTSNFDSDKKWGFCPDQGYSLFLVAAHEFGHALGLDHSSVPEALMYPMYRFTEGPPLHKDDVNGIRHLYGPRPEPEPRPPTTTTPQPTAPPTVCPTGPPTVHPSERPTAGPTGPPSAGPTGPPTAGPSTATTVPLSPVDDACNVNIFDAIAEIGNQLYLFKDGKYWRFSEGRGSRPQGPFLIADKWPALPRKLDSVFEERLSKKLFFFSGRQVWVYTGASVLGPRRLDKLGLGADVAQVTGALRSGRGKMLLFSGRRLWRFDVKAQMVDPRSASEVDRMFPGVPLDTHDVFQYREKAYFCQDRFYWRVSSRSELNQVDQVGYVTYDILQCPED

`Cn1c(O)nc2cc(C(=O)NCC34CC5CC(CC(C5)C3)C4)cnc21` [66+826 Linker 1]: the “remaining activity (%)” value is given as 104.18 in assay [1] (concentration 0.12 µM); 97.92 in assay [1] (concentration 0.49 µM); 99.61 in assay [1] (concentration 1.95 µM); 91.81 in assay [1] (concentration 7.81 µM); 84.92 in assay [1] (concentration 31.25 µM); 90.24 in assay [1] (concentration 125.00 µM). In addition, the “remaining activity (%)” value in assay [1] (concentration 500.00 µM) was 77.04. Also, the “remaining enzyme activity (% of control)” value in assay [2] (concentration 0.12 µM) worked out at 90.98; in assay [2] (concentration 0.49 µM), 79.87; in assay [2] (concentration 1.95 µM), 80.91; in assay [2] (concentration 7.81 µM) it was 80.18; in assay [2] (concentration 31.25 µM), 77.01; in assay [2] (concentration 125.00 µM), 59.34. For the same compound, in assay [2] (concentration 500.00 µM), the “remaining enzyme activity (% of control)” value is on record as 44.40.

For the compound `Cn1c(O)nc2cc(C(=O)NCCCCCCCCNC(=O)CNC(=O)NC34CC5CC(CC(C5)C3)C4)cnc21` [66+826 Linker 4], the “remaining activity (%)” value in assay [1] (concentration 0.12 µM) is reported as 90.87; in assay [1] (concentration 0.49 µM), 97.75; in assay [1] (concentration 1.95 µM) it was 98.21; in assay [1] (concentration 7.81 µM), 97.67; in assay [1] (concentration 31.25 µM), 98.57; in assay [1] (concentration 125.00 µM), 99.42. Besides, in assay [1] (concentration 500.00 µM), the “remaining activity (%)” value is 77.03. Besides, the “remaining enzyme activity (% of control)” value in assay [2] (concentration 0.12 µM) came out at 93.59; in assay [2] (concentration 0.49 µM), 93.14; in assay [2] (concentration 1.95 µM), 89.16; in assay [2] (concentration 7.81 µM), 98.12; in assay [2] (concentration 31.25 µM) it was 95.00; in assay [2] (concentration 125.00 µM) it was 90.00. Also, the “remaining enzyme activity (% of control)” value in assay [2] (concentration 500.00 µM) is on record as 85.00.

`Cn1c(O)nc2cc(C(=O)NCCOCCOCCNC(=O)CNC(=O)NC34CC5CC(CC(C5)C3)C4)cnc21` [66+826 Linker 10]: the “remaining activity (%)” value was found to be 101.73 in assay [1] (concentration 0.12 µM); 104.42 in assay [1] (concentration 0.49 µM); 99.57 in assay [1] (concentration 1.95 µM); 96.59 in assay [1] (concentration 7.81 µM); 91.55 in assay [1] (concentration 31.25 µM); 88.04 in assay [1] (concentration 125.00 µM). Further, in assay [1] (concentration 500.00 µM), the “remaining activity (%)” value is listed as 85.39. Moreover, the “remaining enzyme activity (% of control)” value in assay [2] (concentration 0.12 µM) came to 99.87; in assay [2] (concentration 0.49 µM) it was 98.00; in assay [2] (concentration 1.95 µM), 97.71; in assay [2] (concentration 7.81 µM), 90.00; in assay [2] (concentration 31.25 µM) it was 87.32; in assay [2] (concentration 125.00 µM), 80.00. For the same compound, in assay [2] (concentration 500.00 µM), the “remaining enzyme activity (% of control)” value amounted to 70.00.

Take `Cn1c(O)nc2cc(C(=O)NCCCC/C=C/C(=O)CC(=O)NCC34CC5CC(CC(C5)C3)C4)cnc21` [66+826 Linker 12]: the “remaining activity (%)” value in assay [1] (concentration 0.12 µM) was 102.70; in assay [1] (concentration 0.49 µM), 99.61; in assay [1] (concentration 1.95 µM), 102.06; in assay [1] (concentration 7.81 µM), 101.87; in assay [1] (concentration 31.25 µM) it was 95.39; in assay [1] (concentration 125.00 µM), 94.81. Moreover, the “remaining activity (%)” value in assay [1] (concentration 500.00 µM) is 77.92. For the same compound, the “remaining enzyme activity (% of control)” value in assay [2] (concentration 0.12 µM) came to 93.60; in assay [2] (concentration 0.49 µM), 81.81; in assay [2] (concentration 1.95 µM) it was 96.97; in assay [2] (concentration 7.81 µM), 103.45; in assay [2] (concentration 31.25 µM), 97.31; in assay [2] (concentration 125.00 µM) it was 94.06. Moreover, the “remaining enzyme activity (% of control)” value in assay [2] (concentration 500.00 µM) worked out at 80.41.

In the case of `Cn1c(O)nc2cc(C(=O)NCCSCC(=O)NCC34CC5CC(CC(C5)C3)C4)cnc21` [66+826 Linker 24], the “remaining activity (%)” value was found to be 102.86 in assay [1] (concentration 0.12 µM); 110.62 in assay [1] (concentration 0.49 µM); 101.91 in assay [1] (concentration 1.95 µM); 112.01 in assay [1] (concentration 7.81 µM); 94.11 in assay [1] (concentration 31.25 µM); 93.82 in assay [1] (concentration 125.00 µM). For the same compound, the “remaining activity (%)” value in assay [1] (concentration 500.00 µM) was determined as 94.00. Also, the “remaining enzyme activity (% of control)” value in assay [2] (concentration 0.12 µM) stood at 103.98; in assay [2] (concentration 0.49 µM) it was 100.00; in assay [2] (concentration 1.95 µM), 102.00; in assay [2] (concentration 7.81 µM) it was 100.00; in assay [2] (concentration 31.25 µM) it was 108.11; in assay [2] (concentration 125.00 µM), 104.50. Besides, the “remaining enzyme activity (% of control)” value in assay [2] (concentration 500.00 µM) is on record as 89.34.

As to `O=C(CNC(=O)NC12CC3CC(CC(C3)C1)C2)NCCCCCCCCNC(=O)c1cncc(O)c1` [66+828 Linker 4], the “remaining activity (%)” value turned out to be 106.93 in assay [1] (concentration 0.0156 µM); 108.75 in assay [1] (concentration 0.08 µM); 91.04 in assay [1] (concentration 0.39 µM); 95.05 in assay [1] (concentration 1.95 µM); 96.24 in assay [1] (concentration 9.75 µM); 69.88 in assay [1] (concentration 48.76 µM). Moreover, the “remaining activity (%)” value in assay [1] (concentration 243.80 µM) worked out at 65.10; in assay [1] (concentration 1219.00 µM), 54.12. Further, the “remaining enzyme activity (% of control)” value in assay [2] (concentration 0.08 µM) is on record as 92.81; in assay [2] (concentration 0.39 µM), 100.82; in assay [2] (concentration 1.95 µM), 101.95; in assay [2] (concentration 9.75 µM) it was 96.31; in assay [2] (concentration 48.76 µM) it was 80.00; in assay [2] (concentration 243.80 µM), 52.30. Moreover, the “remaining enzyme activity (% of control)” value in assay [2] (concentration 1219.00 µM) turned out to be 13.62.

On to `O=C(CNC(=O)NC12CC3CC(CC(C3)C1)C2)NCCOCCOCCNC(=O)c1cncc(O)c1` [66+828 Linker 10], for which the “remaining activity (%)” value is on record as 92.68 in assay [1] (concentration 0.07 µM); 96.27 in assay [1] (concentration 0.33 µM); 86.29 in assay [1] (concentration 1.67 µM); 96.46 in assay [1] (concentration 8.34 µM); 79.41 in assay [1] (concentration 41.72 µM); 61.20 in assay [1] (concentration 208.60 µM). Further, the “remaining activity (%)” value was 17.26 in assay [1] (concentration 1043.00 µM) and 100.18 in assay [1] (concentration […]). In addition, the IC50 is 293 ± 32.6 µM in assay [1] and 521 ± 36.5 µM in assay [2]. Moreover, the “remaining enzyme activity (% of control)” value in assay [2] (concentration 0.08 µM) was 104.97; in assay [2] (concentration 0.39 µM), 105.32; in assay [2] (concentration 1.95 µM), 97.80; in assay [2] (concentration 9.75 µM), 93.32; in assay [2] (concentration 48.76 µM) it was 91.82; in assay [2] (concentration 243.80 µM), 71.42. Besides, in assay [2] (concentration 1219.00 µM), the “remaining enzyme activity (% of control)” value was found to be 29.10.

`O=C(C=CCCCCNC(=O)c1cncc(O)c1)CC(=O)NCC12CC3CC(CC(C3)C1)C2` [66+828 Linker 12]: the “remaining activity (%)” value in assay [1] (concentration 0.0156 µM) was 99.10; in assay [1] (concentration 0.08 µM), 102.47; in assay [1] (concentration 0.39 µM), 95.82; in assay [1] (concentration 1.95 µM), 94.73; in assay [1] (concentration 9.75 µM), 93.23; in assay [1] (concentration 48.76 µM), 86.38. In addition, the “remaining activity (%)” value in assay [1] (concentration 243.80 µM) worked out at 70.35; in assay [1] (concentration 1219.00 µM) it was 22.32. Also, the IC50 in assay [1] came out at 488 ± 45.3 µM; in assay [2], 77.4 ± 13.9 µM. The “remaining enzyme activity (% of control)” value in assay [2] (concentration 0.08 µM) is recorded as 103.52; in assay [2] (concentration 0.39 µM), 103.70; in assay [2] (concentration 1.95 µM) it was 101.49; in assay [2] (concentration 9.75 µM), 97.37; in assay [2] (concentration 48.76 µM), 61.33; in assay [2] (concentration 243.80 µM) it was 18.36. Moreover, the “remaining enzyme activity (% of control)” value in assay [2] (concentration 1219.00 µM) came out at 3.09.

A word on the IC50: it is the point on the concentration scale where inhibition reaches its midpoint.
